We go through 17 molecules from patent publication US9249129B2, “Morpholino substituted urea derivatives as mTOR inhibitors” (CELLZOME LIMITED, priority 2010, dated 2016).

For this experiment, the system named is S6RP serine-240/244 phosphorylation in HEK293T/17 cells. As to the kind of experiment: In vitro phospho-S6 cellular assay (pS6RP S240/244). It counts as cell-based. Particulars: Homo sapiens, Table 6, 2 hours, S6RP Ser240/244, read-out: pS6 (phospho-S6 cell assay data, activity level). The gist of the method:
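HEK293T/17 cells in DMEM with 2% FCS treated with 8 compound concentrations (0.1% DMSO) for 2 h at 37 °C, then lysed. Phospho-S6RP Ser240/244 or phospho-Akt Ser473 quantified by MesoScale sandwich immunoassay with Sulfo-Tag detection; IC50 from variable-slope sigmoidal fit.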
Consider `C[C@H]1COCCN1c1nc(-c2ccc(NC(=O)NCCCO)cc2)cc(-c2cc(F)ccc2S(C)(=O)=O)n1` [Example 64, (S)-1-(4-(6-(5-fluoro-2-(methylsulfonyl)phenyl)-2-(3-methylmorpholino)pyrimidin-4-yl)phenyl)-3-(3-hydroxypropyl)urea], for which the IC50 was less than 100 nM. As for `C[C@H]1COCCN1c1nc(-c2ccc(NC(=O)NC3CC3)cc2)cc(-c2cccnc2S(C)(=O)=O)n1` [Example 46, (S)-1-cyclopropyl-3-(4-(2-(3-methylmorpholino)-6-(2-(methylsulfonyl)pyridin-3-yl)pyrimidin-4-yl)phenyl)urea], the figure is less than 100 nM; as for `CS(=O)(=O)c1ccc(F)cc1-c1cc(-c2ccc(NC(=O)NCCO)cc2)nc(N2CCOCC2)n1` [Example 62, 1-(4-(6-(5-fluoro-2-(methylsulfonyl)phenyl)-2-morpholinopyrimidin-4-yl)phenyl)-3-(2-hydroxyethyl)urea], 100 to 1000 nM; as for `C[C@H]1COCCN1c1nc(-c2ccc(NC(=O)NC3CC3)cc2)cc(-c2ccccc2S(C)(=O)=O)n1` [Example 4, (S)-1-cyclopropyl-3-(4-(2-(3-methylmorpholino)-6-(2-(methylsulfonyl)phenyl)pyrimidin-4-yl)phenyl)urea], less than 100 nM. As for `C[C@H]1COCCN1c1cc(-c2ccc(F)nc2)nc(-c2ccc(NC(=O)NC3CC3)cc2)n1` [Example 21, (S)-1-cyclopropyl-3-(4-(4-(6-fluoropyridin-3-yl)-6-(3-methylmorpholino)pyrimidin-2-yl)phenyl)urea], the figure is less than 100 nM.

For `C[C@H]1COCCN1c1nc(-c2ccc(NC(=O)N[C@H]3CCC[C@@H]3O)cc2)cc(-c2cc(F)ccc2S(C)(=O)=O)n1` [Example 76, 1-(4-(6-(5-fluoro-2-(methylsulfonyl)phenyl)-2-((S)-3-methylmorpholino)pyrimidin-4-yl)phenyl)-3-((1S,2S)-2-hydroxycyclopentyl)urea], the IC50 was less than 100 nM. In the case of `C[C@H]1COCCN1c1nc(-c2ccc(NC(=O)NCCO)cc2)cc(-c2cc(F)ccc2S(C)(=O)=O)n1` [Example 41, (S)-1-(4-(6-(5-fluoro-2-(methylsulfonyl)phenyl)-2-(3-methylmorpholino)pyrimidin-4-yl)phenyl)-3-(2-hydroxyethyl)urea], the IC50 is less than 100 nM.

With `C[C@H]1COCCN1c1cc(-c2cncc(F)c2)nc(-c2ccc(NC(=O)NC3CC3)cc2)n1` [Example 23, (S)-1-cyclopropyl-3-(4-(4-(5-fluoropyridin-3-yl)-6-(3-methylmorpholino)pyrimidin-2-yl)phenyl)urea], the IC50 was in the range of 100 to 1000 nM. Turning to `C[C@H]1COCCN1c1nc(-c2ccc(NC(=O)NCCF)cc2)cc(-c2cc(F)ccc2S(C)(=O)=O)n1` [Example 44, (S)-1-(4-(6-(5-fluoro-2-(methylsulfonyl)phenyl)-2-(3-methylmorpholino)pyrimidin-4-yl)phenyl)-3-(2-fluoroethyl)urea], the IC50 is less than 100 nM.

Turning to `C[C@H]1COCCN1c1cc(-c2ccccc2S(C)(=O)=O)nc(-c2ccc(NC(=O)NC3CC3)cc2)n1` [Example 6, (S)-1-cyclopropyl-3-(4-(4-(3-methylmorpholino)-6-(2-(methylsulfonyl)phenyl)pyrimidin-2-yl)phenyl)urea], the IC50 is less than 100 nM.

Consider `O=C(Nc1ccncc1)Nc1ccc(-c2nccc(N3CC4CCC(C3)O4)n2)cc1` [Example 61, 1-(4-(4-(8-oxa-3-azabicyclo[3.2.1]octan-3-yl)pyrimidin-2-yl)phenyl)-3-(pyridin-4-yl)urea], for which the IC50 is less than 100 nM. Regarding `CCNC(=O)Nc1ccc(-c2cc(-c3cc(F)ccc3S(C)(=O)=O)nc(N3CCOC[C@@H]3C)n2)cc1` [Example 2, (S)-1-ethyl-3-(4-(6-(5-fluoro-2-(methylsulfonyl)phenyl)-2-(3-methylmorpholino)pyrimidin-4-yl)phenyl)urea], the IC50 was less than 100 nM. As for `C[C@H]1COCCN1c1ccnc(-c2ccc(NC(=O)Nc3ccncc3)cc2)n1` [Example 60, (S)-1-(4-(4-(3-methylmorpholino)pyrimidin-2-yl)phenyl)-3-(pyridin-4-yl)urea], the figure is less than 100 nM; as for `C[C@H]1COCCN1c1cc(-c2ccccn2)nc(-c2ccc(NC(=O)NC3CC3)cc2)n1` [Example 42, (S)-1-cyclopropyl-3-(4-(4-(3-methylmorpholino)-6-(pyridin-2-yl)pyrimidin-2-yl)phenyl)urea], 100 to 1000 nM; as for `C[C@H]1COCCN1c1nc(-c2ccc(NC(=O)NCC(F)F)cc2)cc(-c2cc(F)ccc2S(C)(=O)=O)n1` [Example 47, (S)-1-(2,2-difluoroethyl)-3-(4-(6-(5-fluoro-2-(methylsulfonyl)phenyl)-2-(3-methylmorpholino)pyrimidin-4-yl)phenyl)urea], less than 100 nM. As for `C[C@H]1COCCN1c1cc(-c2ccccn2)nc(-c2ccc(NC(=O)NCCO)cc2)n1` [Example 43, (S)-1-(2-hydroxyethyl)-3-(4-(4-(3-methylmorpholino)-6-(pyridin-2-yl)pyrimidin-2-yl)phenyl)urea], the figure is less than 100 nM; as for `C[C@H]1COCCN1c1nc(-c2ccc(NC(=O)NC3CC3)cc2)cc(-c2cc(F)ccc2S(C)(=O)=O)n1` [Example 40, (S)-1-cyclopropyl-3-(4-(6-(5-fluoro-2-(methylsulfonyl)phenyl)-2-(3-methylmorpholino)pyrimidin-4-yl)phenyl)urea], less than 100 nM.
